# pKi: −log10 of the molar value. Where two headings read alike, the source gives them in different places.
# Legend:
# 5-HT2A receptor = 5-HT2A receptor (Homo sapiens, UniProt P28223); details: 5-HT6 versus 5-HT2A; cited from earlier work
# 5-HT6 receptor = 5-HT6 receptor (Homo sapiens, UniProt P50406); details: 5-HT6 receptor, cited from earlier work
# [1] = cited from earlier work; for pharmacokinetics: in words
# [2] = test system: glutamate release in the prefrontal cortex; details: 10 mg/kg, sc; cited from earlier work
# aged rats = details: cited from earlier work
# Morris water maze = details: in vivo; cited from earlier work
# yawning behavior = details: in vivo; cited from earlier work
# stretching behavior = details: cited from earlier work; for block of stretching behavior induced by Ro 04-6790: methyl-scopolamine at doses known to be peripherally selective
# Male Sprague-Dawley rats = details: s.c., six-hour delay
# [3] = test system: rats with unilateral nigrostriatal 6-OH-DA lesions; details: cited from earlier work
# object recognition test = details: in vivo; cited from earlier work
# Chain of 5-HT6 receptor (P50406 whole entry): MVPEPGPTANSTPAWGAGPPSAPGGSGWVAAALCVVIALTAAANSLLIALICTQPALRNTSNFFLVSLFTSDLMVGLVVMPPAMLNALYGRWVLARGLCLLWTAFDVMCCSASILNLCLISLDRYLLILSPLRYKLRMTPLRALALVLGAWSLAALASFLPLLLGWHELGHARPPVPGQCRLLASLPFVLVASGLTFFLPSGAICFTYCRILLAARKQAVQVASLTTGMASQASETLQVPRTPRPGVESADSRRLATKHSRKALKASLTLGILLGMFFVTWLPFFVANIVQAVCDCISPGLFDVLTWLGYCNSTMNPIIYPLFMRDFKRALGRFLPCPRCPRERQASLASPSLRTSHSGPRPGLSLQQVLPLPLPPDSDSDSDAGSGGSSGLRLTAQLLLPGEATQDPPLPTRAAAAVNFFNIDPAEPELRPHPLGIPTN
# Chain of 5-HT2A receptor (P28223 whole entry): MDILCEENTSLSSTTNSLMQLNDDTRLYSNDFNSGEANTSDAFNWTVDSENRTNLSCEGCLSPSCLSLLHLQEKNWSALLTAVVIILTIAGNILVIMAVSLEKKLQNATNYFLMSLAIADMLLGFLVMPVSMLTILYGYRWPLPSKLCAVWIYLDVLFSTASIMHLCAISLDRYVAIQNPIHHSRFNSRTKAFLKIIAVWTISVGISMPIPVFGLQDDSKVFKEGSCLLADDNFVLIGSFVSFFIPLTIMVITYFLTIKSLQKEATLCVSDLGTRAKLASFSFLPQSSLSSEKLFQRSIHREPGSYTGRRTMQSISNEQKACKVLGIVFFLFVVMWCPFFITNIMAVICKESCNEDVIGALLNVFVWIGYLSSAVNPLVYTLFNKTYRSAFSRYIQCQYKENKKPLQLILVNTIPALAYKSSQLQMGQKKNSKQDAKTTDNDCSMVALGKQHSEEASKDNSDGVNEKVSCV
molecule,measurement,setting,value
"CCc1[nH]c2ccc(OC)cc2c1CCN(C)C [N,N-dimethyl-2-ethyl-5-methoxytryptamine]",selectivity versus the 5-HT2A receptor,5-HT2A receptor,3.5 fold
same,pKi,5-HT6 receptor,7.09
CNc1cc(NS(=O)(=O)c2ccc(N)cc2)cc(NC)n1 [Ro 63-0563],pharmacokinetics,[1],poor pharmacokinetics
same,pKi,5-HT6 receptor; read-out: Ki,7.92
"COc1ccc(NS(=O)(=O)c2sc3ccc(Cl)cc3c2C)cc1N1CCNCC1 [SB-271,046]",glutamate release in the prefrontal cortex,[2],increases glutamate release
same,spatial alternation operant behavior test,aged rats,improvements
same,performance in the Morris water maze,Morris water maze,improved performance
same,bioavailable,[1]; in vivo,80%
same,yawning behavior induced by physostigmine,yawning behavior,potentiated the yawning behavior
"CN1[C@@H]2C[C@@H](OC(=O)[C@H](CO)c3ccccc3)C[C@H]1[C@@H]1O[C@@H]12 [Scopolamine, scopolamine]",block of stretching behavior induced by Ro 04-6790,stretching behavior,blocked
"Nc1c2c(nc3ccccc13)CCCC2 [Tacrine, tacrine]",retention,Male Sprague-Dawley rats; 3 mg/kg,not
same,retention,Male Sprague-Dawley rats; 10 mg/kg,significantly improved retention
CN1[C@@H]2CC[C@H]1C[C@@H](OC(=O)C(CO)c1ccccc1)C2 (some centres unmarked) [atropine],block of yawning and stretching behavior induced by antisense oligonucleotides targeting the 5-HT6 receptor,stretching behavior; antisense icv to rats,blocked
same,block of stretching behavior induced by Ro 04-6790,stretching behavior,blocked
Ro 04-6790,rotational behavior induced by L-DOPA or amphetamine,"[3]; rat, in vivo",did not block
same,rotation behavior induced by scopolamine,"[3]; rats, unilateral nigrostriatal 6-OH-DA lesions",block the rotation behavior
same,stretching behavior,"stretching behavior; rat, in vivo",induced stretching behavior in a dose-dependent manner
same,scopolamine induced performance deficits in the object recognition test,object recognition test,reversed scopolamine induced performance deficits
same,pharmacokinetics,[1],poor pharmacokinetics
same,pKi,5-HT6 receptor; read-out: Ki,7.30
